Measured values taken from patent US20220162229A1, “HETEROCYCLIC COMPOUNDS AND USES THEREOF” (Nuvation Bio Inc., priority 2019, published 2022).
pIC50: −log10 of the molar value. Read-outs that look alike come from different tables or passages of the source.

Key:
WEE1 kinase enzyme = molecular target: T1, WEE1 kinase enzyme (Homo sapiens, UniProt P30291); test: WEE1 IC50 determination, LanthaScreen Terbium Labeled TR-FRET kinase assay; type: biochemical; details: WEE1 enzyme 1 nM, ATP 10 μM, 1 h
T1 construct: purchased Invitrogen, Life Technologies, Grand Island, N.Y. PR7373A
T1 sequence (P30291 whole entry): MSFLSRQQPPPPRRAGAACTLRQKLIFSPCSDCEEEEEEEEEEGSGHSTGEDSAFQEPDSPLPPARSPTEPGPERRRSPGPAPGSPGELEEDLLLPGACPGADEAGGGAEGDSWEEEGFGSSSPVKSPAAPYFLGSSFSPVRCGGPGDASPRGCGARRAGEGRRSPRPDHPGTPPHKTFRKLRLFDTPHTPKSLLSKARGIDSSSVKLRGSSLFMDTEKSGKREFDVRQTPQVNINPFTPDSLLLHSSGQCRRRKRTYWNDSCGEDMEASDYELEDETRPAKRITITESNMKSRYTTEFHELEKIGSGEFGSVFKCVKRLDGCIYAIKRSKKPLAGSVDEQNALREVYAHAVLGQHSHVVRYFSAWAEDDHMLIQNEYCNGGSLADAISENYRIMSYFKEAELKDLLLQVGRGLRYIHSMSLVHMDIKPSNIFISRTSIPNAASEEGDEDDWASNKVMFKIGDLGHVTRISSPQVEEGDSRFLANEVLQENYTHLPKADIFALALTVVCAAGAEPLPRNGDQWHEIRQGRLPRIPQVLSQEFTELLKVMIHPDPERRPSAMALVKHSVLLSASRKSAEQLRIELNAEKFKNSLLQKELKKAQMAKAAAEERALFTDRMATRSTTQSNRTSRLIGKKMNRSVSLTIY
Procedure: IC50 values of compounds against WEE1 kinase enzyme were determined by LanthaScreen™ Terbium Labeled TR-FRET assay. Kinase assays were performed in 1× kinase buffer (#PV6135, Invitrogen, Life Technologies, Grand Island, N.Y.) where total reaction volume is 10 μL in low-volume 384-well plates (#4511, Corning). Serially diluted compounds (3-fold) were incubated with WEE1 Enzyme (1 nM) (#PR7373A, Invitrogen, Life Technologies, Grand Island, N.Y.) for 10 min; a mixture of ATP (10 μM) (#A1852, Sigma, St. Louis, Mo.) and fluorescent-PolyGT substrate (200 nM) (#PV3610, Invitrogen, Life Technologies, Grand Island, N.Y.) was added and incubated in dark at room temperature for 1 h. After 1 h, 10 μL stop solution containing terbium labeled antibody (4 nM) (#PV3529, Invitrogen, Life Technologies, Grand Island, N.Y.) and EDTA (#E5134, Sigma, St. Louis, Mo.) (20 mM) in TR-FRET dilution buffer (#PV3574, Invitrogen, Life Technologies, Grand Island, N.Y.) was added. Readings were taken in a Synergy Neo plate reader (BioTek, Winooski, Vt.) at single excitation of 340 nm and dual emission at 495 nm and 520 nm respectively.
The % activity of test samples was calculated as (Sample−Min)*100/(Max−Min). [Max: DMSO control, complete reaction with enzyme & DMSO and Min: No enzyme & DMSO]. […]

U-87 MG = test: Cytotoxicity assay (resazurin) in U-87 MG cell line; type: cell-based; details: Homo sapiens, read-out: U-87 MG IC50
Procedure: (§1) A427 (HTB-53; ATCC), a lung epithelial cell line, was seeded in medium (MEM, 41090101; Gibco) at a cell count of 1500 cells per 100 μL per well in a 96 well edge plate (167425; ThermoFisher). Cells were allowed to grow at 37° C. for 24 hr in 5% CO2 environment (culture conditions) in a Nuaire incubator (humidified). Serially diluted test compounds (100 μL) within the desired testing concentration ranges were added to the culture plate and the cells further incubated in culture conditions for 72 hr. The experiment was terminated at the designated incubation time by replacing the medium with 100 μL of 1 mM of resazurin (R7017; Sigma) prepared in culture medium, and the plates were further incubated in culture conditions for 4-6 hr. Fluorescence was recorded using a multimodal plate reader (Biotek Synergy Neo) at an excitation wavelength of 535 nm and emission wavelength of 590 nm to obtain relative fluorescence units. Data were analysed as follows: the background fluorescence (blank containing only medium) value was subtracted from each reading and normalized with the vehicle control (DMSO treated cells) to obtain percent survival/proliferation. […] Potency of compounds in other cell lines (such as A549, As-Pc-1, Panc 10.05, A172, U-87 MG) may be determined in an analogous manner.

As-Pc-1 = test: Cytotoxicity assay (resazurin) in As-Pc-1 cell line; type: cell-based; details: Homo sapiens, read-out: As-Pc-1 IC50
Procedure: as §1

CC1Oc2nc(Nc3ccc4c(c3)CNCC4)ncc2C(=O)N1c1c(Cl)cccc1Cl (stereo not drawn) [1.44, 3-(2,6-dichlorophenyl)-2-methyl-7-((1,2,3,4-tetrahydroisoquinolin-7-yl)amino)-2,3-dihydro-4H-pyrimido[5,4-e][1,3]oxazin-4-one] gave a pIC50 (WEE1 kinase enzyme) of 6.88, a pIC50 (U-87 MG; U-87 MG, 72 h) of 4.94 and a pIC50 (As-Pc-1; ASPC1, 72 h) of 4.71.
CC1Oc2nc(Nc3ccc4c(c3)CCNC4(C)C)ncc2C(=O)N1c1c(Cl)cccc1Cl (stereo not drawn) [1.4, 3-(2,6-dichlorophenyl)-7-((1,1-dimethyl-1,2,3,4-tetrahydroisoquinolin-6-yl)amino)-2-methyl-2,3-dihydro-4H-pyrimido[5,4-e][1,3]oxazin-4-one] gave a pIC50 (WEE1 kinase enzyme) of 6.90, a pIC50 (U-87 MG; U-87 MG cells, 72 hr incubation, inhibition of proliferation) of 4.96 and a pIC50 (As-Pc-1; ASPC1, As-Pc-1 cells, 72 hr incubation, inhibition of proliferation) of 5.07.
